# Data reported in patent US20250179103A1, “6-OXODECAHYDROPYRROLO[1,2-A][1,5]DIAZOCINE AND 6-OXODECAHYDRO-4H-PYRROLO[2,1-D][1,5]THIAZOCINE DERIVATIVES AS STAT3 AND STAT6 MODULATORS FOR THE TREATMENT OF CANCER AND INFLAMMATORY CONDITIONS” (Recludix Pharma, Inc., priority 2022, published 2025).
# Tests used:
# [1] = target: T1, Recombinant STAT6 protein (STAT6(W123-T658)) (Homo sapiens, UniProt P42226); test: STAT6 Fluorescence Polarization (FP) Assay; format: binding; settings: STAT6(W123-T658) 250 nM, probe 5-FAM-ApYKPFQDLI-NH2 2 nM, 45-minute incubation
# T1 construct: Recombinant STAT6 protein (STAT6(W123-T658))
# T1 sequence (P42226 123-658): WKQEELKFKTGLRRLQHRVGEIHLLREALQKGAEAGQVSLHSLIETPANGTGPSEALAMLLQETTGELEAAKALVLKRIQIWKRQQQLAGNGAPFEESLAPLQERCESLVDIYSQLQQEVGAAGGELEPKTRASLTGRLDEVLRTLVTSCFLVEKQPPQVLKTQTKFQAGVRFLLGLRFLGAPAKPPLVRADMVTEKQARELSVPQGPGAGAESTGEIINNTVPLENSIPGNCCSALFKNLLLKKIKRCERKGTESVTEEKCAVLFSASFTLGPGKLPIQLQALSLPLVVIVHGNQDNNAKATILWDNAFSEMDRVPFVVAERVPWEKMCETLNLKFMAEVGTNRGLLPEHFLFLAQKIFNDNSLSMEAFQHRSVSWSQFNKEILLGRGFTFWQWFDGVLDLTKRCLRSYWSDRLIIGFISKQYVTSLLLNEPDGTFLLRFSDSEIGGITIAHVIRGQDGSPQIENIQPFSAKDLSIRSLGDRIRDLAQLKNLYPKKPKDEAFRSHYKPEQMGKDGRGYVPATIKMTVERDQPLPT
# Method in brief: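 Displacement of a fluorescent phosphotyrosine peptide (5-FAM-ApYKPFQDLI-NH2, 2 nM) from STAT6(W123-T658) (250 nM), 1% DMSO, pH 7.4 HEPES buffer. After 45 min at room temperature, polarization (mP) was plotted versus log compound concentration and fitted by nonlinear regression to give IC50.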
# [2] = target: T2, Recombinant STAT3 protein (STAT3(G127-I722)) (Homo sapiens, UniProt P40763); test: STAT3 Fluorescence Polarization (FP) Assay; format: binding; settings: STAT3(G127-I722) 25 nM, probe 5-FAM-GpYLPQTV-NH2 2 nM, 45-minute incubation
# T2 construct: Recombinant STAT3 protein (STAT3(G127-I722))
# Method in brief: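 Fluorescence polarization after a 45-min room-temperature incubation measured compound displacement of a 2 nM fluorescein-labelled phosphotyrosine peptide (5-FAM-GpYLPQTV-NH2) from 25 nM recombinant STAT3(G127-I722). Buffer was 10 mM HEPES pH 7.4 with 1% DMSO final. IC50s were fitted by nonlinear regression of mP against log concentration.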
# T2 sequence (P40763 127-722): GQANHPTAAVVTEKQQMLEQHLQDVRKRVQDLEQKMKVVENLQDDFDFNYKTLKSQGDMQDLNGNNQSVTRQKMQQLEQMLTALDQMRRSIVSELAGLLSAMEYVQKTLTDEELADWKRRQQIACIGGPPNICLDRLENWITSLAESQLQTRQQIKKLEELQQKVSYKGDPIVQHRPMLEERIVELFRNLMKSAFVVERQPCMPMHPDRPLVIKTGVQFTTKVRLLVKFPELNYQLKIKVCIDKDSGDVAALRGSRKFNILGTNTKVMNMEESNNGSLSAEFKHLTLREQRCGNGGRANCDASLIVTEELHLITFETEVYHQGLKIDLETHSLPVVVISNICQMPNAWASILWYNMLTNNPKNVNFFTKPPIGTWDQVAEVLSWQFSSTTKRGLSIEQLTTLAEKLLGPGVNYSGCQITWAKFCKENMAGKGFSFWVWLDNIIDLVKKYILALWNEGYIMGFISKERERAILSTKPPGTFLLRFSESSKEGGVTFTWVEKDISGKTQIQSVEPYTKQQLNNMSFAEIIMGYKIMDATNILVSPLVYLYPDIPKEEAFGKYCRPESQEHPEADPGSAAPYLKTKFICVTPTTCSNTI
IC50 [1],IC50 [2],Compound
300 to 3000 nM,1000 to 10000 nM,"CC(=O)N1CC[C@H]2CC[C@@H](C(=O)N3C[C@H](C#N)[C@@]4(C3)C(=O)Nc3ccccc34)N2C(=O)[C@@H](NC(=O)c2cc3cc(C(F)(F)P(=O)(O)O)ccc3s2)C1 (single isomer, unassigned) [Compound 13, ((2-(((5S,8S,10aR)-3-acetyl-8-((3R,4′R or 3S,4′S)-4′-cyano-2-oxospiro[indoline-3,3′-pyrrolidine]-1′-carbonyl)-6-oxodecahydropyrrolo[1,2-a][1,5]diazocin-5-yl)carbamoyl)benzo[b]thiophen-5-yl)difluoromethyl)phosphonic acid]"
≤ 300 nM,1000 to 10000 nM,"CC(=O)N1CC[C@H]2CC[C@@H](C(=O)N3C[C@H](c4cc[nH]c(=O)c4)[C@@H](C#N)C3)N2C(=O)[C@@H](NC(=O)c2ccc3ccc(C(F)(F)P(=O)(O)O)cc3c2)C1 (single isomer, unassigned) [Compound 38, ((7-(((5S,8S,10aR)-3-acetyl-8-((3R,4S or 3S,4R)-3-cyano-4-(2-oxo-1,2-dihydropyridin-4-yl)pyrrolidine-1-carbonyl)-6-oxodecahydropyrrolo[1,2-a][1,5]diazocin-5-yl)carbamoyl)naphthalen-2-yl)difluoromethyl)phosphonic acid]"
≤ 300 nM,1000 to 10000 nM,"CC(=O)N1CC[C@H]2CC[C@@H](C(=O)N3C[C@@H](C#N)[C@H](c4cc[nH]c(=O)c4)C3)N2C(=O)[C@@H](NC(=O)c2ccc3ccc(C(F)(F)P(=O)(O)O)cc3c2)C1 (single isomer, unassigned) [Compound 39, ((7-(((5S,8S,10aR)-3-acetyl-8-((3S,4R or 3R,4S)-3-cyano-4-(2-oxo-1,2-dihydropyridin-4-yl)pyrrolidine-1-carbonyl)-6-oxodecahydropyrrolo[1,2-a][1,5]diazocin-5-yl)carbamoyl)naphthalen-2-yl)difluoromethyl)phosphonic acid]"
≤ 300 nM,1000 to 10000 nM,"CC(=O)N1CC[C@H]2CC[C@@H](C(=O)N3C[C@@H](C#N)[C@H](c4ccccc4)C3)N2C(=O)[C@@H](NC(=O)c2cc3cc(C(F)(F)P(=O)(O)O)ccc3s2)C1 (single isomer, unassigned) [Compound 52, ((2-(((5S,8S,10aR)-3-acetyl-8-((3S,4R or 3R,4S)-3-cyano-4-phenylpyrrolidine-1-carbonyl)-6-oxodecahydropyrrolo[1,2-a][1,5]diazocin-5-yl)carbamoyl)benzo[b]thiophen-5-yl)difluoromethyl)phosphonic acid]"
≤ 300 nM,1000 to 10000 nM,"CC(=O)N1CC[C@H]2CC[C@@H](C(=O)N3C[C@H](C(N)=O)[C@@H](c4ccccc4)C3)N2C(=O)[C@@H](NC(=O)c2cc3cc(C(F)(F)P(=O)(O)O)ccc3s2)C1 (single isomer, unassigned) [Compound 59, ((2-(((5S,8S,10aR)-3-acetyl-8-((3R,4S or 3S,4R)-3-carbamoyl-4-phenylpyrrolidine-1-carbonyl)-6-oxodecahydropyrrolo[1,2-a][1,5]diazocin-5-yl)carbamoyl)benzo[b]thiophen-5-yl)difluoromethyl)phosphonic acid]"
300 to 3000 nM,1000 to 10000 nM,"CC(=O)N1CC[C@H]2CC[C@@H](C(=O)N3CC[C@H](Cc4cccnc4)C3)N2C(=O)[C@@H](NC(=O)c2cc3cc(C(F)(F)P(=O)(O)O)ccc3s2)C1 (single isomer, unassigned) [Compound 65, ((2-(((5S,8S,10aR)-3-acetyl-6-oxo-8-((S)-3-(pyridin-3-ylmethyl)pyrrolidine-1-carbonyl)decahydropyrrolo[1,2-a][1,5]diazocin-5-yl)carbamoyl)benzo[b]thiophen-5-yl)difluoromethyl)phosphonic acid or ((2-(((5S,8S,10aR)-3-acetyl-6-oxo-8-((R)-3-(pyridin-3-ylmethyl)pyrrolidine-1-carbonyl)decahydropyrrolo[1,2-a][1,5]diazocin-5-yl)carbamoyl)benzo[b]thiophen-5-yl)difluoromethyl)phosphonic acid]"
≤ 300 nM,1000 to 10000 nM,"CC(=O)N1CC[C@H]2CC[C@@H](C(=O)N3C[C@H](c4ccccc4)[C@@H](C#N)C3)N2C(=O)[C@@H](NC(=O)c2cc3cc(C(F)(F)P(=O)(O)O)ccc3[nH]2)C1 (single isomer, unassigned) [Compound 138, ((2-(((5S,8S,10aR)-3-acetyl-8-((3R,4S or 3S,4R)-3-cyano-4-phenylpyrrolidine-1-carbonyl)-6-oxodecahydropyrrolo[1,2-a][1,5]diazocin-5-yl)carbamoyl)-1H-indol-5-yl)difluoromethyl)phosphonic acid]"
≤ 300 nM,1000 to 10000 nM,"CC(=O)N1CC[C@H]2CC[C@@H](C(=O)N3C[C@@H](C#N)[C@H](c4ccccc4)C3)N2C(=O)[C@@H](NC(=O)c2cc3cc(C(F)(F)P(=O)(O)O)ccc3[nH]2)C1 (single isomer, unassigned) [Compound 139, ((2-(((5S,8S,10aR)-3-acetyl-8-((3S,4R or 3R,4S)-3-cyano-4-phenylpyrrolidine-1-carbonyl)-6-oxodecahydropyrrolo[1,2-a][1,5]diazocin-5-yl)carbamoyl)-1H-indol-5-yl)difluoromethyl)phosphonic acid]"
300 to 3000 nM,1000 to 10000 nM,"CCN1CC[C@H]2CC[C@@H](C(=O)N3C[C@@H](C#N)[C@H](c4ccccc4)C3)N2C(=O)[C@@H](NC(=O)c2cc3cc(C(F)(F)P(=O)(O)O)ccc3s2)C1 (single isomer, unassigned) [Compound 222, ((2-(((5S,8S,10aR)-8-((3S,4R or 3R,4S)-3-cyano-4-phenylpyrrolidine-1-carbonyl)-3-ethyl-6-oxodecahydropyrrolo[1,2-a][1,5]diazocin-5-yl)carbamoyl)benzo[b]thiophen-5-yl)difluoromethyl)phosphonic acid]"
≤ 300 nM,100 to 1000 nM,"CCN1CC[C@H]2CC[C@@H](C(=O)N3C[C@@H](C#N)[C@H](c4ccccc4)C3)N2C(=O)[C@@H](NC(=O)c2cc3cc([C@H](F)P(=O)(O)O)ccc3s2)C1 (single isomer, unassigned) [Compound 232, ((R or S)-(2-(((5S,8S,10aR)-8-((3S,4R or 3R,4R)-3-cyano-4-phenylpyrrolidine-1-carbonyl)-3-ethyl-6-oxodecahydropyrrolo[1,2-a][1,5]diazocin-5-yl)carbamoyl)benzo[b]thiophen-5-yl)fluoromethyl)phosphonic acid]"
300 to 3000 nM,1000 to 10000 nM,"CCN1CC[C@H]2CC[C@@H](C(=O)N3C[C@@H](C#N)[C@H](c4cc[nH]c(=O)c4)C3)N2C(=O)[C@@H](NC(=O)c2ccc3ccc(C(F)(F)P(=O)(O)O)cc3c2)C1 (single isomer, unassigned) [Compound 238, ((7-(((5S,8S,10aR)-8-((3R,4S or 3S,4R)-3-cyano-4-(2-oxo-1,2-dihydropyridin-4-yl)pyrrolidine-1-carbonyl)-3-ethyl-6-oxodecahydropyrrolo[1,2-a][1,5]diazocin-5-yl)carbamoyl)naphthalen-2-yl)difluoromethyl)phosphonic acid]"
